In one series the test system is LL2 tumor. In words: Murine syngeneic LL2 lung tumor model. The following applies: LL2 tumor-bearing mice. In kind it is in vivo.
Series [1] concerns H1299 cells. In words: Cytotoxicity, CCK-8 assay. It is filed as cell-based. Conditions: H1299, linear copolypeptides, 0 to 100 μM. As for the experimental part:
The cytotoxicity of copolypeptides at various concentrations or in combination with cisplatin (5 μM) was evaluated by incubating with A549, BEAS-2B, and H1299 cells (5×10^3 cells/well) in 96-well plates for 24 h using 10% FBS DMEM as the medium. After adding CCK-8 reagent (Targetmol) dissolved in serum-free medium, the well plates were incubated at 37° C. for 1 h. Upon transferring the medium to fresh 96-well plates, the absorbance of each well was measured at 450 nm using a Microplate Spectrophotometer (BioTek). The percentages of viable cells were calculated by the below equation:
Cell viability (%)=(Absorbancetest cell−Absorbanceblank)/(Absorbancecontrol cell−Absorbanceblank)×100

For series [2], the system named is H1299 (p53-deficient) cells. In words: Transfection efficiency of copolypeptides/pDNA polyplexes. In kind it is cell-based. The following applies: H1299, relative to lipofectamine 2000. An excerpt: LysmBnCys5 copolypeptides (m=5, 10, and 15, i.e., SEQ ID NOs: 2, 5, and 3)) efficiently carried p53 gene (pcDNA3 p53 WT plasmid) into H1299 (p53-deficient) cells and enhanced chemotherapeutic treatment. […] Improved transfection efficiency was mainly attributed to optimal polyplex stability, determined by peptide charge density and rigidity. […] Moreover, treatment with both LysmBnCys5/p53 gene vector and cisplatin extended the survival rates of tumor-bearing mice.
FIGS. 22A-22B are results showing the p53 gene transfection efficiencies of various star-shaped copolypeptides to H1299 cells.
5.0 μM copolypeptides or 4.0 μL lipofectamine 2000 (Thermo Fisher Scientific) were mixed with 4.0 μg of plasmid DNA (pEGFP-C, Clontech) in 1 mL serum-free DMEM and left standing for 20 min. After cell concentration reached 2×10^5 cells/well in 6-well plates, the culture medium was replaced with 1 mL copolypeptides/DNA complexes (polyplexes) and incubated for 6 h. […] Green fluorescent protein (GFP) expression of transfected cells was examined under an inverted fluorescence microscope (IX71, Olympus). Quantitative evaluation of the transfection efficiency was also conducted using a flow cytometer (BD Biosciences). […] Transfection efficiency was then calculated as the percentage of cells expressing GFP, with the fluorescence of 2×10^4 cells evaluated by flow cytometry.

A further series deals with A549 cells. In words: Membrane staining with 1,1′-diethyl-4,4′-carbocyanine iodide. In kind it is cell-based. Conditions: A549, 4 μM, 6 h.
Another series relates to E-cadherin. In words: Immunoblot analysis in H1299 cells. It is filed as cell-based. The following applies: H1299, 24 h. As for the experimental part:
(§1) In the present disclosure, E-cadherin is one of the crucial molecules in cell-cell adhesion, participating in cancer progression.
(§2) The immunoblot analysis was conducted by treating H1299 cells with copolypeptides (4 μM) in the presence or absence of cisplatin (5 μM) for 24 h, followed by extraction using RIPA Lysis and Extraction Buffer (Thermo Fisher Scientific) and then separation by using 8% SDS-PAGE. Upon transferring onto NC membranes (0.22 μm) blocked in 5% fat-free dry milk, the proteins were incubated with primary antibodies against E-cadherin, caspase-3, poly(ADP-ribose) polymerase (PARP), and β-actin, followed by incubation with their appropriate secondary antibodies. An Immobilon Western Chemiluminescent HRP Substrate kit (Merck) was used to form visualized protein bands and the intensities of the protein bands were quantified using the Image J software (Image Processing and Analysis in Java) by normalizing to that of β-actin.
For orientation: In western blotting, separated proteins are transferred to a membrane and probed.

For another series, the system named is caspase-3, and PARP. The experiment in a line: Immunoblot analysis in H1299 cells. It is filed as cell-based. Conditions: H1299, 24 h. How it is done: as §1, §2
In series [3] the test system is H1299 cells. In words: Membrane staining with 1,1′-diethyl-4,4′-carbocyanine iodide. It is filed as cell-based. The following applies: H1299, 4 μM, 6 h.
Series [4] in a line: Secondary conformation by circular dichroism (BeStSel fit). In kind it is physicochemical. The following applies: CD, 0.1 mg mL^−1 in DI water, neutral condition. As for the experimental part:
The BeStSel software (Beta Structure Selection) was used to compute the percentages of peptide chain conformation by fitting the CD spectra.
The MALDI-TOF MS spectrum of the side-chain protected peptide was recorded in the reflection mode of a MALDI-TOF spectrometer (Bruker Autoflex III TOF/TOF). […] For CD measurements, the concentration of peptide samples in DI water was 0.1 mg mL^−1. SAXS patterns of peptide solutions were recorded on a Bruker NanoSTAR U diffractometer with controlled voltage 45 kV and current 650 μA at room temperature under 4×10^−1 torr. The critical aggregation concentration (cac) of peptides was determined by measuring the pyrene emission spectra of various peptide solutions with an integration time of 1.0 sec using a Hitachi FL-4500 fluorescence spectrophotometer.
(In general: Circular dichroism is the unequal absorption of left and right circularly polarised light.)

Method for LL2 tumor: Briefly, LL2 cells that had been transfected with the luciferase reporter gene were inoculated subcutaneously into C57BL/6 mice.
LL2 cells (5×10^5) expressing a luciferase reporter were inoculated subcutaneously into the backs of C57BL/6 mice, as a lung cancer animal model. After 7 days, saline control or copolypeptides were injected intratumorally to start the beginning of the timeline (day zero). […] Tumor growth, body weight, and survival were closely monitored. Tumor volume was calculated using the following equation: (length of tumor)×(width of tumor)^2×0.45 by measuring the tumors in two perpendicular axes with a tissue caliper. Once the tumor volume reached 2,000 mm^3, the mice were sacrificed and subsequently recorded as dead. […] On day 12, mice were intraperitoneally injected with D-luciferin potassium salt (200 μL, 10 mg/mL, Thermo Fisher Scientific), followed by anesthesia with 2% isoflurane in order to perform in vivo bioluminescence imaging. An IVIS-200 Perkin Elmer system with its integrated acquisition and analysis software (Living Image V. 2.50) was performed to quantify the said signals. On day 32, an optical microscope was used to examine the number of pulmonary metastatic nodules.

Regarding `N.N.[Cl][Pt][Cl]` [cisplatin], the body weight loss result in the series with LL2 tumor was “weight loss”.
In the case of “poly-L-lysine (LLLLLLLLLLLLLLL) [PLL15, poly-L-lysine, 15 residues]”, the cell viability entry with H1299 cells [1] is given as “cell viability decreased with increasing concentration”.
On the same count and under the same terms, then poly-L-guanidinylated lysine [PLGL15], with “cell viability decreased with increasing concentration”.
Take “Lys15BnCys5: poly-L-lysine-block-poly-S-benzyl-L-cysteine, 15 and 5 residues”: the cell viability entry in the series with H1299 cells [1] is “cell viability decreased with increasing concentration”. In addition, the transfection efficiency result in series [2] is listed as “almost equivalent to that using lipofectamine 2000”.
As for “Lys10BnCys5: poly-L-lysine-block-poly-S-benzyl-L-cysteine, 10 and 5 residues”, the cell viability entry in the series with H1299 cells [1] is given as “cell viability decreased with increasing concentration”.
LLLLLCCCCC [Lys5Cys5]: in the series on A549 cells, the “membrane staining with 1,1′-diethyl-4,4′-carbocyanine iodide” value was “not”. The E-cadherin expression entry with E-cadherin is listed as “reduced E-cadherin expression”. In addition, the “caspase-3 and PARP expression” value with caspase-3, and PARP is “triggered caspase-3, and PARP expression significantly”. Moreover, the “membrane staining with 1,1′-diethyl-4,4′-carbocyanine iodide” value in the series on H1299 cells [3] was “not”. Also, in series [4], the “Random coil (%)” value was 32.0% and the “ß-sheet/turn (%)” value stood at 68.0%.

Values taken from US20240228537A1, “BLOCK COPOLYPEPTIDES AND USE THEREOF” (National Cheng Kung University, priority 2023, published 2024).
